{"source": "paper PMC5845353", "about": "“The selective cathepsin K inhibitor MIV-711 attenuates joint pathology in experimental animal models of osteoarthritis” (Journal of Translational Medicine, 2018)", "key": {"plasma proteins": {"test_system": "plasma proteins", "test": "Fraction bound to plasma proteins, human", "type": "in vitro ADME"}, "[1]": {"test_system": "dogs subjected to partial medial meniscectomy", "test": "Dog partial medial meniscectomy study, gross macroscopic scoring", "type": "in vivo", "conditions": "MIV-711 30 µmol/kg", "excerpt": "The study design and animal usage were reviewed and approved by the IACUC at Preclinical Research Services (PCRS; Fort Collins, CO) for compliance with regulations before study initiation (IACUC Number 1021). Animal welfare, housing and research procedures for this study complied with the U.S. Department of Agriculture’s (USDA) Animal Welfare Act (9 CFR Parts 1, 2, and 3), the Guide for the Care and Use of Laboratory Animals, and PCRS Standard of Procedures. Thirty adult naïve female beagle dogs, with a weight of 7.5–11.3 kg and an age of approximately 6–8 months at study initiation, were used for this study. The dogs were acclimated for at least 7 days before study initiation.\nAt least 12 h before surgery, a fentanyl transdermal 2.5 mg patch was placed on the skin on the ventral aspect of the tail of each dog and secured into place with tape. The fentanyl patch delivered approximately 25 μg/h of analgesia for a total duration of 72–80 h. Dogs were also pre-medicated before surgery with glycopyrrolate (0.005–0.02 mg/kg), acepromazine (0.01–0.05 mg/kg) and morphine (0.5–1.0 mg/kg) injected subcutaneously. General anesthesia was induced using propofol (2–6 mg/kg) given intravenously; each dog was then intubated and maintained on isoflurane in oxygen (0.5–5%) administered to effect. The hair over the surgical site was clipped, and a preliminary aseptic prep of the area was done by alternating scrubs of chlorhexidine surgical scrub and sterile dry gauze sponges. A local anesthetic line block of lidocaine and bupivacaine (1.5 mg each) diluted in saline was administered at the incision site to provide local pre-emptive anesthesia. The limb was draped with a sterile fenestrated surgical drape. A small 2 cm medial parapatellar skin incision and a subsartorius capsular approach were made to expose the meniscus. For removal of the anterior one-half of the medial meniscus, the cranial meniscotibial ligament was incised, and the capsular attachments to the cranial pole of the meniscus were separated sharply with a scalpel under direct vision, sparing injury to the articular cartilage or the ACL. The medial meniscus was reflected medially with a hemostat. […] Animals were monitored closely throughout the recovery and post-operative period. […]\nAll animals were humanely euthanized on Day 29 to collect specimens for pathology. […] At study termination, the left (operated) knee was opened, disarticulated and the lesions on the medial tibia and femur measured, described and photographed. […] Lesions were classified as more severe or less severe depending on the intensity of India ink staining or perception of depth and areas for each calculated. Gross cartilage lesions were measured (length × width) and described as superficial, moderate, or deep. […]"}, "[2]": {"test_system": "dogs subjected to partial medial meniscectomy", "test": "Dog partial medial meniscectomy study, microscopic lesion width and depth ratio", "type": "in vivo", "procedure": "Measurements of width of total lesion of any type (chondrocyte death, cloning, fibrillation, proteoglycan loss) were taken across the tibial and femoral surfaces to give a total lesion width. Significant lesion width (matrix loss extending beyond superficial degeneration; i.e., lesions consisting of changes greater than just proteoglycan loss) was also determined in an attempt to convey possible treatment differences based on evaluation of more serious and permanent/irreversible cartilage matrix changes. Multiple depth measurements in areas of greatest lesion severity were taken for each of the 4 quadrants in each of the 3 anterior to posterior sections. These consisted of measurements taken from the surface (or estimated original surface when severe degenerative changes are present) to the point where cartilage appeared normal. A second measurement was taken in this same area to the depth of the tidemark so that the number expressed is a ratio of lesion depth vs. depth of tidemark. The mean values for each quadrant (medial to lateral) for the 3 anterior to posterior sections were determined as well as an overall mean for the joint. In this measurement, the minor changes consisting of proteoglycan loss only are not measured and only lesions with definite chondrocyte loss and sometimes fibrillation are included. This parameter should reflect a similar result to the significant width measurement as it is an indicator of beneficial effects on the more severe pathology."}, "cathepsin K from human": {"target": "cathepsin K from human", "parameters": "method as in PMID 29743078", "conditions": "read-out: Ki against cathepsin K from human; cited from earlier work"}, "[3]": {"conditions": "dog, individual animals of MIV-711 group"}, "[4]": {"conditions": "dog, mean of zones, individual animals of MIV-711 group"}, "[5]": {"conditions": "dog, mean of zones, versus Vehicle"}, "[6]": {"conditions": "individual dogs of MIV-711 group, mean of the 4 quadrants"}, "[7]": {"conditions": "individual dogs of MIV-711 group, width of any cartilage lesion, mean of 3 sections"}, "[8]": {"conditions": "individual dogs of MIV-711 group, width of degeneration with score of 1 or greater"}}, "note": "Where “and” joins values, the source holds several entries; their conditions need not be identical. Equal entries are not always repeated."}
{"smiles": "C#C[C@@H]1CN(C(=O)[C@H](CC(C)C)NC(=O)c2ccc(-c3nc(N4CCN(C)CC4)sc3F)cc2)[C@@H]2C(=O)CO[C@H]12", "note": "[MIV-711]", "values": [{"measurement": "fraction bound to plasma proteins", "setting": "plasma proteins", "value": 94, "unit": "%"}, {"measurement": "Macroscopic score, Calculated", "setting": "[1]; Femur condyle", "value": "9.07 ± 4.78"}, {"measurement": "Macroscopic score, Subjective", "setting": "[1]; Femur condyle", "value": "1.13 ± 0.32"}, {"measurement": "Macroscopic score, Calculated", "setting": "[1]; Tibia plateau", "value": "23.88 ± 3.17"}, {"measurement": "Macroscopic score, Subjective", "setting": "[1]; Tibia plateau", "value": "2.33 ± 0.21"}, {"measurement": "Femur Cartilage Degeneration Width Sig", "setting": "[2]; MIV-711 group mean", "value": 994.3, "unit": "µm"}, {"measurement": "Femur Cartilage Degeneration Width Total", "setting": "[2]; MIV-711 group mean", "value": 3661.0, "unit": "µm"}, {"measurement": "Femur Mean DRAMC (Depth Ratio Any Matrix Change)", "setting": "[2]; MIV-711 group mean", "value": 0.084}, {"measurement": "Tibia Cartilage Degeneration Width Sig", "setting": "[2]; MIV-711 group mean", "value": 2105.6, "unit": "µm"}, {"measurement": "Tibia Cartilage Degeneration Width Total", "setting": "[2]; MIV-711 group mean", "value": 7336.0, "unit": "µm"}, {"measurement": "Tibia Mean DRAMC (Depth Ratio Any Matrix Change)", "setting": "[2]; MIV-711 group mean", "value": 0.13}, {"measurement": "% inhibition, Femur Cartilage Degeneration Width Sig", "setting": "[2]; MIV-711 group vs vehicle", "value": 11, "unit": "%"}, {"measurement": "% inhibition, Femur Cartilage Degeneration Width Total", "setting": "[2]; MIV-711 group vs vehicle", "value": 13, "unit": "%"}, {"measurement": "% inhibition, Femur Mean DRAMC", "setting": "[2]; MIV-711 group vs vehicle", "value": -9, "unit": "%"}, {"measurement": "% inhibition, Tibia Cartilage Degeneration Width Sig", "setting": "[2]; MIV-711 group vs vehicle", "value": 5, "unit": "%"}, {"measurement": "% inhibition, Tibia Cartilage Degeneration Width Total", "setting": "[2]; MIV-711 group vs vehicle", "value": 0, "unit": "%"}, {"measurement": "% inhibition, Tibia Mean DRAMC", "setting": "[2]; MIV-711 group vs vehicle", "value": 17, "unit": "%"}, {"measurement": "Femur Depth Ratio Any Matrix Change Zone 1", "setting": "[2]; dog, group Mean", "value": 0.15}, {"measurement": "Femur Depth Ratio Any Matrix Change Zone 2", "setting": "[2]; dog, group Mean", "value": 0.13}, {"measurement": "Femur Depth Ratio Any Matrix Change Zone 3", "setting": "[2]; dog, group Mean", "value": 0.05}, {"measurement": "Femur Depth Ratio Any Matrix Change Zone 4", "setting": "[2]; dog, group Mean", "value": 0.01}, {"measurement": "Tibia Depth Ratio Any Matrix Change Zone 1", "setting": "[2]; dog, group Mean", "value": 0.05}, {"measurement": "Tibia Depth Ratio Any Matrix Change Zone 2", "setting": "[2]; dog, group Mean", "value": 0.31}, {"measurement": "Tibia Depth Ratio Any Matrix Change Zone 3", "setting": "[2]; dog, group Mean", "value": 0.11}, {"measurement": "Tibia Depth Ratio Any Matrix Change Zone 4", "setting": "[2]; dog, group Mean", "value": 0.04}, {"measurement": "Femur Depth Ratio Any Matrix Change Zone 1", "setting": "[2]; [3]", "value": "0.08 and 0.07 and 0.01 and 0.42 and 0.19 and 0.10 and 0.09 and 0.22 and 0.50 and 0.06 and 0.23"}, {"measurement": "Femur Depth Ratio Any Matrix Change Zone 2", "setting": "[2]; [3]", "value": "0.13 and 0.16 and 0.00 and 0.36 and 0.08 and 0.10 and 0.01 and 0.06 and 0.09 and 0.48 and 0.05 and 0.24"}, {"measurement": "Femur Depth Ratio Any Matrix Change Zone 3", "setting": "[2]; [3]", "value": "0.04 and 0.03 and 0.00 and 0.33 and 0.01 and 0.02 and 0.21"}, {"measurement": "Femur Depth Ratio Any Matrix Change Zone 4", "setting": "[2]; [3]", "value": "0.00 and 0.01 and 0.02 and 0.06"}, {"measurement": "Tibia Depth Ratio Any Matrix Change Zone 1", "setting": "[2]; [3]", "value": "0.06 and 0.08 and 0.01 and 0.09 and 0.03 and 0.13 and 0.00 and 0.15 and 0.11"}, {"measurement": "Tibia Depth Ratio Any Matrix Change Zone 2", "setting": "[2]; [3]", "value": "0.28 and 0.23 and 0.35 and 0.24 and 0.27 and 0.36 and 0.39 and 0.22 and 0.47 and 0.33 and 0.30 and 0.19"}, {"measurement": "Tibia Depth Ratio Any Matrix Change Zone 3", "setting": "[2]; [3]", "value": "0.14 and 0.11 and 0.18 and 0.08 and 0.15 and 0.07 and 0.24 and 0.06 and 0.04 and 0.19 and 0.03 and 0.05"}, {"measurement": "Tibia Depth Ratio Any Matrix Change Zone 4", "setting": "[2]; [3]", "value": "0.05 and 0.04 and 0.00 and 0.07 and 0.06 and 0.01 and 0.03 and 0.02"}, {"measurement": "Femur Depth Ratio Any Matrix Change Mean", "setting": "[2]; dog, mean of zones, group Mean", "value": 0.08}, {"measurement": "Tibia Depth Ratio Any Matrix Change Mean", "setting": "[2]; dog, mean of zones, group Mean", "value": 0.13}, {"measurement": "Femur Depth Ratio Any Matrix Change Mean", "setting": "[2]; [4]", "value": "0.06 and 0.07 and 0.00 and 0.28 and 0.04 and 0.03 and 0.01 and 0.08 and 0.31 and 0.12"}, {"measurement": "Tibia Depth Ratio Any Matrix Change Mean", "setting": "[2]; [4]", "value": "0.13 and 0.11 and 0.17 and 0.09 and 0.15 and 0.16 and 0.07 and 0.14 and 0.20"}, {"measurement": "% inhibition, Femur Depth Ratio Any Matrix Change Mean", "setting": "[2]; [5]", "value": -9, "unit": "%"}, {"measurement": "% inhibition, Tibia Depth Ratio Any Matrix Change Mean", "setting": "[2]; [5]", "value": 17, "unit": "%"}, {"measurement": "% inhibition, Femur Depth Ratio Any Matrix Change Zone 1", "setting": "[2]; dog, versus Vehicle", "value": -39, "unit": "%"}, {"measurement": "% inhibition, Femur Depth Ratio Any Matrix Change Zone 2", "setting": "[2]; dog, versus Vehicle", "value": 10, "unit": "%"}, {"measurement": "% inhibition, Femur Depth Ratio Any Matrix Change Zone 3", "setting": "[2]; dog, versus Vehicle", "value": -12, "unit": "%"}, {"measurement": "% inhibition, Femur Depth Ratio Any Matrix Change Zone 4", "setting": "[2]; dog, versus Vehicle", "value": 44, "unit": "%"}, {"measurement": "% inhibition, Tibia Depth Ratio Any Matrix Change Zone 1", "setting": "[2]; dog, versus Vehicle", "value": 55, "unit": "%"}, {"measurement": "% inhibition, Tibia Depth Ratio Any Matrix Change Zone 2", "setting": "[2]; dog, versus Vehicle", "value": -2, "unit": "%"}, {"measurement": "% inhibition, Tibia Depth Ratio Any Matrix Change Zone 3", "setting": "[2]; dog, versus Vehicle", "value": 23, "unit": "%"}, {"measurement": "% inhibition, Tibia Depth Ratio Any Matrix Change Zone 4", "setting": "[2]; dog, versus Vehicle", "value": 19, "unit": "%"}, {"measurement": "Femur Mean DRAMC (Depth Ratio Any Matrix Change)", "setting": "[2]; [6]", "value": "0.04 and 0.06 and 0.07 and 0.00 and 0.28 and 0.03 and 0.01 and 0.08 and 0.31 and 0.12"}, {"measurement": "Tibia Mean DRAMC (Depth Ratio Any Matrix Change)", "setting": "[2]; [6]", "value": "0.07 and 0.13 and 0.11 and 0.17 and 0.09 and 0.15 and 0.16 and 0.14 and 0.20"}, {"measurement": "Femur Cartilage Degeneration Width Total", "setting": "[2]; [7]", "value": "3885 µm and 4200 µm and 4410 µm and 630 µm and 5040 µm and 3780 µm and 2310 µm and 3990 µm and 5880 µm and 2730 µm and 3675 µm"}, {"measurement": "Tibia Cartilage Degeneration Width Total", "setting": "[2]; [7]", "value": "6405 µm and 6510 µm and 8190 µm and 7560 µm and 8400 µm and 7980 µm and 6195 µm and 6930 µm and 6615 µm and 7245 µm and 7770 µm"}, {"measurement": "Femur Cartilage Degeneration Width Sig", "setting": "[2]; [8]", "value": "0 µm and 735 µm and 1260 µm and 3465 µm and 200 µm and 968 µm and 420 µm and 1890 µm and 733 µm and 815 µm and 3360 µm and 1068 µm"}, {"measurement": "Tibia Cartilage Degeneration Width Sig", "setting": "[2]; [8]", "value": "1638 µm and 1890 µm and 2310 µm and 1470 µm and 2520 µm and 2205 µm and 1155 µm and 3150 µm and 1575 µm and 1218 µm and 2163 µm and 4515 µm and 1785 µm"}, {"measurement": "Ki", "setting": "cathepsin K from human", "value": 0.98, "unit": "nM"}]}
